A word on the AC50: it is the concentration at which the activity in the assay is half-maximal.

AC50 data for 22 compounds are collected here from ChEMBL document CHEMBL5291721, “A preclinical secondary pharmacology resource illuminates target-adverse drug reaction associations of marketed drugs” (Nat Commun, 2023).

Among the targets are Estrogen receptor beta (Homo sapiens, UniProt Q92731); Cannabinoid receptor 1 (Homo sapiens, UniProt P21554); Histamine H2 receptor (Homo sapiens, UniProt P25021).
Test [1] addresses T1, Endothelin receptor type B (Homo sapiens, UniProt P24530).
T1 sequence (P24530 whole entry): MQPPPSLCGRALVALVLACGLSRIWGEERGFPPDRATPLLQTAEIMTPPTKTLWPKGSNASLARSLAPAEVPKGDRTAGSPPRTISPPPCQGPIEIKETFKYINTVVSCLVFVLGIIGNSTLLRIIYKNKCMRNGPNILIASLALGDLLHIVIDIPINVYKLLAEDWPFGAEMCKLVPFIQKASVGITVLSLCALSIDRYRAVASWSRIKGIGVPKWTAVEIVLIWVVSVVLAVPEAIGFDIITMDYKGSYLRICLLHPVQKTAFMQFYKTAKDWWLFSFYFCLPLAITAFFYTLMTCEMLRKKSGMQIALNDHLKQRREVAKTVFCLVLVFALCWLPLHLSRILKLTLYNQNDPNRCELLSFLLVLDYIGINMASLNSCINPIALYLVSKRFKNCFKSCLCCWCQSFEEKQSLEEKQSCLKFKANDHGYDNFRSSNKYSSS

The target in test [2] is Neurotensin receptor type 1 (Homo sapiens, UniProt P30989).
Test [3] concerns the target Voltage-dependent N-type calcium channel subunit alpha-1B (Rattus norvegicus, UniProt Q02294). The format is functional.
Another test has as its target T2, Androgen receptor (Rattus norvegicus, UniProt P15207).
T2 sequence (P15207 whole entry): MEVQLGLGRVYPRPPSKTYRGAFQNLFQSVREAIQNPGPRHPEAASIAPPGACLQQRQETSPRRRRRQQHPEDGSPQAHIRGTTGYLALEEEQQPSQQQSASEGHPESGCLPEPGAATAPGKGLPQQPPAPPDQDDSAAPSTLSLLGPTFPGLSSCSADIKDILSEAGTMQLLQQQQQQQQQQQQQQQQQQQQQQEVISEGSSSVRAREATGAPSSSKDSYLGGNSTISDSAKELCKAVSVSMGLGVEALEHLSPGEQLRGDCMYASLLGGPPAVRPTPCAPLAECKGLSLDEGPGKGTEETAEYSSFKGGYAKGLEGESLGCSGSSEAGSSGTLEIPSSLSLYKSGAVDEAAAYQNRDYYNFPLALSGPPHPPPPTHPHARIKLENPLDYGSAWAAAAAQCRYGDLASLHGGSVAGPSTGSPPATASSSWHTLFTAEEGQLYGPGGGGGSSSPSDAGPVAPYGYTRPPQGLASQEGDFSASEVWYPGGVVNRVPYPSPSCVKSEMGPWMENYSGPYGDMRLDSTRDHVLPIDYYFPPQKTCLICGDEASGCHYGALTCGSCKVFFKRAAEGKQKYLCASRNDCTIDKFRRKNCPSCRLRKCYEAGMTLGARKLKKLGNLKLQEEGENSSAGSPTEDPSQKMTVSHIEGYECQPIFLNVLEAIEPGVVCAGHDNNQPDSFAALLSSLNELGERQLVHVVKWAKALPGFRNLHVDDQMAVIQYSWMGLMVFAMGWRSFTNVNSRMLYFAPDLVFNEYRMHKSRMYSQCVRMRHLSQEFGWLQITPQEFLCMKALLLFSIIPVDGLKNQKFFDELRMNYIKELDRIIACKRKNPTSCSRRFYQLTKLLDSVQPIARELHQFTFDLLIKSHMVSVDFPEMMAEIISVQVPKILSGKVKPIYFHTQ

Test [4] deals with Beta-3 adrenergic receptor (Homo sapiens, UniProt P13945).
The target of test [5] is 5-hydroxytryptamine receptor 2A (Homo sapiens, UniProt P28223). The test is classed as functional, cell-based.
In test [6] the target is T3, Neuropeptide Y receptor type 2 (Homo sapiens, UniProt P49146).
T3 sequence (P49146 whole entry): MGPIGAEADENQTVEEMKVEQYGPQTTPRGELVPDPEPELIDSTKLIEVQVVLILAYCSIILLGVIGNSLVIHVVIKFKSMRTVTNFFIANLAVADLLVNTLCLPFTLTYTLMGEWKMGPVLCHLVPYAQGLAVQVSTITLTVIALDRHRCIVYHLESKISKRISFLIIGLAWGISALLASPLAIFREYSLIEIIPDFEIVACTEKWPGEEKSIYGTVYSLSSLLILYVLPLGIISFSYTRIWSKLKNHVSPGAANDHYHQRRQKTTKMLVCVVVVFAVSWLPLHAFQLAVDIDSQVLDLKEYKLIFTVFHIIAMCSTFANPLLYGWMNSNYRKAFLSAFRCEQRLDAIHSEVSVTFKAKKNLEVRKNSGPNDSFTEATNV

The target in test [7] is T4, Muscarinic acetylcholine receptor M2 (Homo sapiens, UniProt P08172).
T4 sequence (P08172 whole entry): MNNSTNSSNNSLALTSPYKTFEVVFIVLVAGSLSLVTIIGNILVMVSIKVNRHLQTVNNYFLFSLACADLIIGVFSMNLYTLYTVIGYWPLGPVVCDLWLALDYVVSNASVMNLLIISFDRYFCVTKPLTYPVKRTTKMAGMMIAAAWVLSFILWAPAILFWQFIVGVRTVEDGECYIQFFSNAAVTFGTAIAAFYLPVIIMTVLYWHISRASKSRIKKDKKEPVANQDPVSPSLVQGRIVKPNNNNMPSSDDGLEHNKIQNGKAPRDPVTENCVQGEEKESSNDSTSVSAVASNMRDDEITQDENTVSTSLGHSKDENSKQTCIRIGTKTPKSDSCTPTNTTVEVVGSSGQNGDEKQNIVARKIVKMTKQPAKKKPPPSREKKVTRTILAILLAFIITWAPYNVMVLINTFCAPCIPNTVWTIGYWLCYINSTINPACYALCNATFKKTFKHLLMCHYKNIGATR

Test [8] concerns the target Beta-2 adrenergic receptor (Homo sapiens, UniProt P07550). The format is functional, cell-based.
In another test the target is Mu-type opioid receptor (Homo sapiens, UniProt P35372). Put plainly: biochemical. The test is classed as functional.

Some results are limits rather than exact numbers.
Also: assay procedure not described here.

Sequence of Voltage-dependent N-type calcium channel subunit alpha-1B (Q02294 whole entry): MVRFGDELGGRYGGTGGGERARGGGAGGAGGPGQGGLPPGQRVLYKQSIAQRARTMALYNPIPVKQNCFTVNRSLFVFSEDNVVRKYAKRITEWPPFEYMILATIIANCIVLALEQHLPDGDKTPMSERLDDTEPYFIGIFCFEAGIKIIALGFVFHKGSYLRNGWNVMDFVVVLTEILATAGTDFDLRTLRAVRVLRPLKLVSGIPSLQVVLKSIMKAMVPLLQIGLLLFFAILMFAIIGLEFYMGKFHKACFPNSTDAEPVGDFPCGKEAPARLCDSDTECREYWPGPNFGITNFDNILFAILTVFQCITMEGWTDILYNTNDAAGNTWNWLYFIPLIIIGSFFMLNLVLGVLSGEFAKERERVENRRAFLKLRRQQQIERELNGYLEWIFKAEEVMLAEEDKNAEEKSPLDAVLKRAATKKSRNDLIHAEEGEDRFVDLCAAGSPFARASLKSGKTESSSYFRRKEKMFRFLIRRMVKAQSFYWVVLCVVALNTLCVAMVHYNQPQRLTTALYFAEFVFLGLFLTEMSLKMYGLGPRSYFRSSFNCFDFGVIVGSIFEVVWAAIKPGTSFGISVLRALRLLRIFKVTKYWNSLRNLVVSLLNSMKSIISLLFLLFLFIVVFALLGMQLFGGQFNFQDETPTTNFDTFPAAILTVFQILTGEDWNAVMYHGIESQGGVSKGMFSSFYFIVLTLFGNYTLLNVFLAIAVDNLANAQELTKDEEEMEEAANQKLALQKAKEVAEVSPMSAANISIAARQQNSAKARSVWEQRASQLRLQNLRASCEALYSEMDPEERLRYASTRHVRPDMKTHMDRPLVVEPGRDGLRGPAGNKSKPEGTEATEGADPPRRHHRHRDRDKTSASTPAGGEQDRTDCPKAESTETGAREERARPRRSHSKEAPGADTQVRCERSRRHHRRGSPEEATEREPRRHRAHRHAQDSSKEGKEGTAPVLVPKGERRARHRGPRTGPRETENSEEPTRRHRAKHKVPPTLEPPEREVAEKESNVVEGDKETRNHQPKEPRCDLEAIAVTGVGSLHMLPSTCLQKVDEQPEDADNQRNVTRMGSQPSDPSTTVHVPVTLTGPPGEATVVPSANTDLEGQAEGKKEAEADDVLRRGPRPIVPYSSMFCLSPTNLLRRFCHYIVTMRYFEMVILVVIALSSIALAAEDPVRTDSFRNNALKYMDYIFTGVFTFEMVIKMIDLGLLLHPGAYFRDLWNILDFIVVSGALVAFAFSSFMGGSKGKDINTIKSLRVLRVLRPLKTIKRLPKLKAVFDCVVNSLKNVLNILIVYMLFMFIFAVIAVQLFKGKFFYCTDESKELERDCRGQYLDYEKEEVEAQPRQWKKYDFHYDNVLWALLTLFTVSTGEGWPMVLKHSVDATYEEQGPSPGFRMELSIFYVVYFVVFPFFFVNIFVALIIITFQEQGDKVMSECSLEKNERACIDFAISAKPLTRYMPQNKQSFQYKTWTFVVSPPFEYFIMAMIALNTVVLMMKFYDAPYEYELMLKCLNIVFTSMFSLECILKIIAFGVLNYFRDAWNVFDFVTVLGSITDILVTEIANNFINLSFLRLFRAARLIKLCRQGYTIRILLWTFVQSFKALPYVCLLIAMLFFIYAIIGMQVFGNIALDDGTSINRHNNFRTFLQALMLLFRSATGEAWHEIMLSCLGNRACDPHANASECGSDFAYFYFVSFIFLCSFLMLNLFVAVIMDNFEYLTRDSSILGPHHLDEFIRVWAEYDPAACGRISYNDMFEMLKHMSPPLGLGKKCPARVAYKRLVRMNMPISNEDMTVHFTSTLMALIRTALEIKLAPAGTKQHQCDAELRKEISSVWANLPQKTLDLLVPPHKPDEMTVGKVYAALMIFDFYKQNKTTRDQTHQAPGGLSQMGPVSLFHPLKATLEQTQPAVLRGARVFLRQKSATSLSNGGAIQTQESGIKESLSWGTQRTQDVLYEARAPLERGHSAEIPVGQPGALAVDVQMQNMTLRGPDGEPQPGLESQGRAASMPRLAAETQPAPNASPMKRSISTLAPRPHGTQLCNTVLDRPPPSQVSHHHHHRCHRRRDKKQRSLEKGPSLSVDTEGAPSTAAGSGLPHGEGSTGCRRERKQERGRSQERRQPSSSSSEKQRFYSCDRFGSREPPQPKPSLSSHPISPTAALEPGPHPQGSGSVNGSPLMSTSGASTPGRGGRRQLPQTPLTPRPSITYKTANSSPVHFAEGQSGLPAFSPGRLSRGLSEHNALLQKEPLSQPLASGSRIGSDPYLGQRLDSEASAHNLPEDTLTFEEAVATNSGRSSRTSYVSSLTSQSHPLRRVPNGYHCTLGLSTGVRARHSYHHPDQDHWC
Sequence of Histamine H2 receptor (P25021 whole entry): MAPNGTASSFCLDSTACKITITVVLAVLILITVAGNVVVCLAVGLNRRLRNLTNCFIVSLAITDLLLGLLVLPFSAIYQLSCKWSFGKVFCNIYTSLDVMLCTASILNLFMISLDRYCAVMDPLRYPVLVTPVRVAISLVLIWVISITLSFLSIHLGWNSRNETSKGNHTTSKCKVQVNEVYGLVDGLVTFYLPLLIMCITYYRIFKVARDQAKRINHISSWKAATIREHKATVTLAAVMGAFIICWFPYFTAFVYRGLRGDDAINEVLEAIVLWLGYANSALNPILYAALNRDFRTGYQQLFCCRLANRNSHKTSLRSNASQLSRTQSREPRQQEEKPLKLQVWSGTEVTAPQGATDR
Sequence of Estrogen receptor beta (Q92731 whole entry): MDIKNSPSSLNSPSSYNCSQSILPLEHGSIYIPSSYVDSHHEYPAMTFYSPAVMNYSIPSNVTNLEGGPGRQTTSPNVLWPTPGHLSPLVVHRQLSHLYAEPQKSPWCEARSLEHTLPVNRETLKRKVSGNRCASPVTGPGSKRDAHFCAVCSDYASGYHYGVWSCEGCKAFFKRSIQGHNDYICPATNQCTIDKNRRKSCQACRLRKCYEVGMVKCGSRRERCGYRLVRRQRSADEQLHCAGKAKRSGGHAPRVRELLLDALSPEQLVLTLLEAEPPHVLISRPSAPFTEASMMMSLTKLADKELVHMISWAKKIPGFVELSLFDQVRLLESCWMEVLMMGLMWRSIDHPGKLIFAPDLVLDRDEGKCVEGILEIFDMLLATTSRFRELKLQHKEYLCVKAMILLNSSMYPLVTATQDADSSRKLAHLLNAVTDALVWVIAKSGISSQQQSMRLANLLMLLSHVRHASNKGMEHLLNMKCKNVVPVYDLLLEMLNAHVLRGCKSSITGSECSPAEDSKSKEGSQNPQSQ
Sequence of Neurotensin receptor type 1 (P30989 whole entry): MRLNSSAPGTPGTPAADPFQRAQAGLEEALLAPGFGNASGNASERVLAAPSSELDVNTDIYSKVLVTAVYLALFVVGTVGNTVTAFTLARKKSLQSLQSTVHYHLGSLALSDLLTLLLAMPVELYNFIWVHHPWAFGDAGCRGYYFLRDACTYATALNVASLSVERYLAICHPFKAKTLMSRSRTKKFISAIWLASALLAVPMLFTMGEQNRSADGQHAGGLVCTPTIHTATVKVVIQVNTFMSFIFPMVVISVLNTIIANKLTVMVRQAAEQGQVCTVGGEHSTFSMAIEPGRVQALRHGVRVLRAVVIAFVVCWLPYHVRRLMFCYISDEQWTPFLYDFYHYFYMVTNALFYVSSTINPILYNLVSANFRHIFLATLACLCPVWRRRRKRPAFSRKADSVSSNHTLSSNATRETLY
Sequence of Beta-2 adrenergic receptor (P07550 whole entry): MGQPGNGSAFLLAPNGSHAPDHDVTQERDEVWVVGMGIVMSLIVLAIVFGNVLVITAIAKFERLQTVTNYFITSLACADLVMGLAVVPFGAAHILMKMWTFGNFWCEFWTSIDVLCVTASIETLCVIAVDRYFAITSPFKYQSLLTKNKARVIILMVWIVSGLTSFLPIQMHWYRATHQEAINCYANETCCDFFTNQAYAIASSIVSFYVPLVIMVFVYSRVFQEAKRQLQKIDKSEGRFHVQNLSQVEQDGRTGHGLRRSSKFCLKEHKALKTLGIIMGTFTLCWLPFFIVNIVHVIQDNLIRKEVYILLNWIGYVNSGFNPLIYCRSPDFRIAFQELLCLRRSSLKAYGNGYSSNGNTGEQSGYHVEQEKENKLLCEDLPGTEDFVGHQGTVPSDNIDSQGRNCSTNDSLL
Sequence of Cannabinoid receptor 1 (P21554 whole entry): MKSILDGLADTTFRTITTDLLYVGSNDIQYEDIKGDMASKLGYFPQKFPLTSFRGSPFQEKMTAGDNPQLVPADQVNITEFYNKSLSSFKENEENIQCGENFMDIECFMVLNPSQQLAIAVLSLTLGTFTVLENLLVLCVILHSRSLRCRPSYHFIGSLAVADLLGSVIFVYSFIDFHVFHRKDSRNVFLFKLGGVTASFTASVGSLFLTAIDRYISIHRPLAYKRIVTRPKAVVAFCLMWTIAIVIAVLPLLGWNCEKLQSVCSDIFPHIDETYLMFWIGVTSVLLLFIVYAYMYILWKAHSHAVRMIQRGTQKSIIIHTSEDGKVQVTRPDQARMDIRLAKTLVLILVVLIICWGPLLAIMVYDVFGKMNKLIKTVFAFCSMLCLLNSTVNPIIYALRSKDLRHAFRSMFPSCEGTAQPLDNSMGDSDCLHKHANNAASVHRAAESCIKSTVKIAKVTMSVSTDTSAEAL
Sequence of Mu-type opioid receptor (P35372 whole entry): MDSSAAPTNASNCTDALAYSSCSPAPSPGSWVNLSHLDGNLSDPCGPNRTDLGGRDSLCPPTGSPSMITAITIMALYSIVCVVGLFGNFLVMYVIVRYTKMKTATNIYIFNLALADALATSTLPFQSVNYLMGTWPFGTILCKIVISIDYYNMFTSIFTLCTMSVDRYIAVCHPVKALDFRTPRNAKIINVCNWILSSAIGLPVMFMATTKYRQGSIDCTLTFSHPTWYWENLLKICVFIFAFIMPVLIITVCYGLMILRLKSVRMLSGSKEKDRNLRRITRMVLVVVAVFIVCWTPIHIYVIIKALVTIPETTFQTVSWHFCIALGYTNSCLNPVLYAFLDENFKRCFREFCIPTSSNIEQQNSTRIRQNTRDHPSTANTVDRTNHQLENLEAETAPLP

For `CC(C)(N)Cc1ccccc1` [PHENTERMINE], the concentration at half-maximal activity (AC50) in test [1] was greater than 30 µM; in test [2] it was greater than 30 µM; in test [3], greater than 10 µM; at Androgen receptor it was greater than 30 µM; in test [4] it was greater than 30 µM; in test [5], greater than 30 µM. For the same compound, the concentration at half-maximal activity (AC50) is greater than 30 µM on Estrogen receptor beta; greater than 30 µM in [6]; greater than 10 µM at Cannabinoid receptor 1; greater than 10 µM in test [7]; greater than 30 µM in test [8].
For the compound `CCC(=O)[C@@]1(C)[C@H](C)C[C@H]2[C@@H]3CCC4=CC(=O)C=C[C@]4(C)[C@H]3[C@@H](O)C[C@@]21C` [RIMEXOLONE], the AC50 at Androgen receptor was greater than 30 µM; in test [5], greater than 10 µM; at Cannabinoid receptor 1 it was 6.91 µM; at Mu-type opioid receptor, greater than 30 µM.
In the case of `CCN(CC)C(C)C(=O)c1ccccc1` (configuration not stated) [DIETHYLPROPION], the half-maximal activity concentration (AC50) was greater than 30 µM in [1]; greater than 30 µM in test [2]; greater than 10 µM in test [3]; greater than 30 µM at Androgen receptor; greater than 30 µM in test [4]; greater than 30 µM in test [6]. Also, the half-maximal activity concentration (AC50) at Histamine H2 receptor is greater than 10 µM; at Cannabinoid receptor 1, greater than 10 µM; in test [7] it was greater than 10 µM; in test [8] it was greater than 30 µM.
`Nc1cc(N2CCCCC2)nc(N)[n+]1[O-]` [MINOXIDIL]: the half-maximal activity concentration (AC50) on Androgen receptor was greater than 30 µM; at Cannabinoid receptor 1 it was greater than 10 µM; in [8], greater than 30 µM.
Regarding `CN1CCC(=C2c3ccccc3CC(=O)c3sccc32)CC1` [KETOTIFEN], the AC50 on Cannabinoid receptor 1 is greater than 10 µM; in test [7] it was 0.432 µM; on Mu-type opioid receptor, greater than 30 µM; in [8], greater than 30 µM.
Consider TEPRENONE, for which the AC50 at Androgen receptor was greater than 30 µM.
Take `COc1ccc2c3c1O[C@H]1C(=O)CC[C@H]4[C@@H](C2)N(C)CC[C@]314` [HYDROCODONE]: the half-maximal activity concentration (AC50) in [1] was greater than 30 µM; in test [2] it was greater than 30 µM; in test [3], greater than 10 µM; in test [4], greater than 30 µM; in test [5] it was greater than 30 µM; on Estrogen receptor beta, greater than 30 µM. Also, the AC50 was greater than 30 µM in test [6], greater than 10 µM at Histamine H2 receptor, greater than 10 µM in test [7] and greater than 30 µM in test [8].
Turning to `CN(C)CCOC(=O)C(c1ccccc1)C1(O)CCCC1` (configuration not stated) [CYCLOPENTOLATE], the concentration at half-maximal activity (AC50) is greater than 10 µM in test [5], greater than 10 µM on Cannabinoid receptor 1, 0.624 µM in [7] and greater than 30 µM at Mu-type opioid receptor.
Take `CCN(CC)CC(=O)Nc1c(C)cccc1C` [LIDOCAINE]: the AC50 (in test [1]; in test [2]; on Estrogen receptor beta; in test [6]) was greater than 30 µM in each case.
In the case of `O=C(O[C@H]1C[N+]2(CCCOc3ccccc3)CCC1CC2)C(O)(c1cccs1)c1cccs1` [ACLIDINIUM BROMIDE], the AC50 is greater than 30 µM in test [1]; greater than 30 µM in test [2]; greater than 10 µM in test [3]; greater than 30 µM in test [6]; greater than 10 µM on Histamine H2 receptor; greater than 10 µM at Cannabinoid receptor 1.
As to `CC(C(=O)O)c1ccc(C(=O)c2ccccc2)s1` (configuration not stated) [TIAPROFENIC ACID], the AC50 at Androgen receptor is greater than 10 µM; in test [5], greater than 30 µM; at Cannabinoid receptor 1, greater than 10 µM; in test [8], greater than 30 µM.
Turning to `CC1=C(CC(=O)O)c2cc(F)ccc2/C1=C\c1ccc([S+](C)[O-])cc1` (configuration not stated), the concentration at half-maximal activity (AC50) in test [1] was greater than 30 µM; in [2], greater than 30 µM; in [3], greater than 10 µM; in test [4], greater than 30 µM; on Estrogen receptor beta, greater than 30 µM; in [6] it was greater than 30 µM. In addition, the half-maximal activity concentration (AC50) (at Histamine H2 receptor; in [7]) was greater than 10 µM each time.
Consider `Cc1cnc(Nc2ccc(OCCN3CCCC3)cc2)nc1Nc1cccc(S(=O)(=O)NC(C)(C)C)c1` [FEDRATINIB], for which the half-maximal activity concentration (AC50) was greater than 30 µM at Androgen receptor and greater than 10 µM on Cannabinoid receptor 1.
With `CCOC(=O)O[C@]1(C(=O)COC(=O)CC)CC[C@H]2[C@@H]3CCC4=CC(=O)C=C[C@]4(C)[C@H]3[C@@H](O)C[C@@]21C` [PREDNICARBATE], the concentration at half-maximal activity (AC50) at Androgen receptor is 0.71 µM; in test [5] it was greater than 10 µM; at Cannabinoid receptor 1 it was greater than 10 µM; on Mu-type opioid receptor, greater than 30 µM.
Turning to `OCC(CO)N[C@H]1C[C@](O)(CO)[C@@H](O)[C@H](O)[C@H]1O` [VOGLIBOSE], the AC50 (at Androgen receptor; in [5]; at Cannabinoid receptor 1; at Mu-type opioid receptor) was greater than 30 µM throughout.
`CC1NCCOC1c1ccccc1` (configuration not stated) [PHENMETRAZINE]: the half-maximal activity concentration (AC50) is greater than 30 µM in test [1]; greater than 30 µM in test [2]; greater than 10 µM in [3]; greater than 30 µM in test [4]; greater than 30 µM in [5]; greater than 30 µM on Estrogen receptor beta. Moreover, the concentration at half-maximal activity (AC50) in [6] is greater than 30 µM; at Cannabinoid receptor 1 it was greater than 10 µM; in test [7] it was greater than 10 µM; in [8], greater than 30 µM.
As for `OCCN(CCO)c1nc(N2CCCCC2)c2nc(N(CCO)CCO)nc(N3CCCCC3)c2n1` [DIPYRIDAMOLE], the AC50 (in [2]; at Androgen receptor; in test [4]; at Cannabinoid receptor 1; on Mu-type opioid receptor) was greater than 30 µM throughout.
On to `C[C@@H](Cc1ccccc1)N(C)Cc1ccccc1` [BENZPHETAMINE], for which the half-maximal activity concentration (AC50) was greater than 10 µM on Androgen receptor, 22 µM in test [5] and greater than 10 µM at Cannabinoid receptor 1.
As to `CC(C)CN(C[C@@H](O)[C@H](Cc1ccccc1)NC(=O)O[C@H]1CCOC1)S(=O)(=O)c1ccc(N)cc1`, the concentration at half-maximal activity (AC50) on Androgen receptor is greater than 10 µM; on Cannabinoid receptor 1, 11.4 µM.
For the compound `C=C(c1ccccc1OCc1cccc(Cl)c1)n1ccnc1` [CROCONAZOLE], the half-maximal activity concentration (AC50) at Androgen receptor is greater than 30 µM.
`OCC(O)COc1ccc(Cl)cc1` (configuration not stated): the AC50 (at Androgen receptor; in test [5]; on Cannabinoid receptor 1) was greater than 10 µM each time.
`CCOC(=O)C1=C(C)NC(C)=C(C(=O)OC)C1c1cccc(Cl)c1Cl` (configuration not stated) [FELODIPINE]: the half-maximal activity concentration (AC50) in test [1] is greater than 30 µM; in test [2] it was greater than 30 µM; in test [3], greater than 10 µM; in test [4], 10.4 µM; at Estrogen receptor beta it was greater than 30 µM; in test [6] it was greater than 30 µM. Moreover, the AC50 was greater than 10 µM at Histamine H2 receptor, 13.4 µM at Cannabinoid receptor 1 and greater than 10 µM in test [7].
